This is an account of results in ChEMBL document CHEMBL5212743, “Selectivity Literature for EUbOPEN Chemogenomics Library wave 3” (2023).

The target of experiment [1] is T1, Ephrin type-B receptor 6 (Homo sapiens) (UniProt O15197).
T1 sequence (whole entry): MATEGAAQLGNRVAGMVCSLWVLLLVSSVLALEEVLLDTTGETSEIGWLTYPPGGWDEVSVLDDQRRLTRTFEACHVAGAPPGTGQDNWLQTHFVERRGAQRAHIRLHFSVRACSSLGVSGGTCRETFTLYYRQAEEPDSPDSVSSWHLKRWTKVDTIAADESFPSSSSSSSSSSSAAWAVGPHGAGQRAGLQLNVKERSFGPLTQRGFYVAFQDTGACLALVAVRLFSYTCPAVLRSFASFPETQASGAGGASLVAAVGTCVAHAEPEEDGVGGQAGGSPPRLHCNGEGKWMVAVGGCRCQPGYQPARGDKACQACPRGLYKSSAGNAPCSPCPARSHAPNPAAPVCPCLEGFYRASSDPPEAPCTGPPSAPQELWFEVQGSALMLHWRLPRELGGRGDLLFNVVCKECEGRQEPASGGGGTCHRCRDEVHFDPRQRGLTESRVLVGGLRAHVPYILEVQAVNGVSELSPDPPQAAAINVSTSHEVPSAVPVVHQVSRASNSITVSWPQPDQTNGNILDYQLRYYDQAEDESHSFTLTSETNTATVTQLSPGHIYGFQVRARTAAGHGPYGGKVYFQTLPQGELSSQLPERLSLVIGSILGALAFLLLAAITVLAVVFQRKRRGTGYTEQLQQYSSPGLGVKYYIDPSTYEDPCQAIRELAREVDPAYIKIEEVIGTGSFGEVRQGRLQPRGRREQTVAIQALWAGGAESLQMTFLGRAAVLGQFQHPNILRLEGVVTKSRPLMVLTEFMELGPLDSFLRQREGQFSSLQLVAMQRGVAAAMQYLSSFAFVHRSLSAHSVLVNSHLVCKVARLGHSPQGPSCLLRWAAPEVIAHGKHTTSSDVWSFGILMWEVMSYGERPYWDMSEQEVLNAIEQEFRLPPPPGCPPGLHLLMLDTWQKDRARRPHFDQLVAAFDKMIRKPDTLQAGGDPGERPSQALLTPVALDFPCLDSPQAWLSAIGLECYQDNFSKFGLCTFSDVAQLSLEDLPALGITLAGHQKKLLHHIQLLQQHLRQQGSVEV
As to the kind of experiment: Selectivity interaction (KinomeScan (Eurofins)) EUB0000250b EPHB6. As to conditions: at 1 µM.

The target of experiment [2] is Leukocyte tyrosine kinase receptor (Homo sapiens, UniProt P29376). As to the kind of experiment: Selectivity interaction (KinomeScan (DiscoverX)) EUB0000250b LTK. As to conditions: at 1 µM.
Experiment [3] concerns the target Epidermal growth factor receptor (Homo sapiens, UniProt P00533). As to the kind of experiment: Selectivity interaction (KinomeScan (DiscoverX)) EUB0000250b EGFR. As to conditions: at 1 µM.
Experiment [4] addresses Ephrin type-B receptor 3 (Homo sapiens) (UniProt P54753). As to the kind of experiment: Selectivity interaction (KinomeScan (Eurofins)) EUB0000250b EPHB3. As to conditions: at 1 µM.
The target of experiment [5] is Tyrosine-protein kinase Fer (Homo sapiens, UniProt P16591). As to the kind of experiment: Selectivity interaction (KinomeScan (Eurofins)) EUB0000250b FER. As to conditions: at 1 µM.
Sequence of Tyrosine-protein kinase Fer (P16591 whole entry, looked up): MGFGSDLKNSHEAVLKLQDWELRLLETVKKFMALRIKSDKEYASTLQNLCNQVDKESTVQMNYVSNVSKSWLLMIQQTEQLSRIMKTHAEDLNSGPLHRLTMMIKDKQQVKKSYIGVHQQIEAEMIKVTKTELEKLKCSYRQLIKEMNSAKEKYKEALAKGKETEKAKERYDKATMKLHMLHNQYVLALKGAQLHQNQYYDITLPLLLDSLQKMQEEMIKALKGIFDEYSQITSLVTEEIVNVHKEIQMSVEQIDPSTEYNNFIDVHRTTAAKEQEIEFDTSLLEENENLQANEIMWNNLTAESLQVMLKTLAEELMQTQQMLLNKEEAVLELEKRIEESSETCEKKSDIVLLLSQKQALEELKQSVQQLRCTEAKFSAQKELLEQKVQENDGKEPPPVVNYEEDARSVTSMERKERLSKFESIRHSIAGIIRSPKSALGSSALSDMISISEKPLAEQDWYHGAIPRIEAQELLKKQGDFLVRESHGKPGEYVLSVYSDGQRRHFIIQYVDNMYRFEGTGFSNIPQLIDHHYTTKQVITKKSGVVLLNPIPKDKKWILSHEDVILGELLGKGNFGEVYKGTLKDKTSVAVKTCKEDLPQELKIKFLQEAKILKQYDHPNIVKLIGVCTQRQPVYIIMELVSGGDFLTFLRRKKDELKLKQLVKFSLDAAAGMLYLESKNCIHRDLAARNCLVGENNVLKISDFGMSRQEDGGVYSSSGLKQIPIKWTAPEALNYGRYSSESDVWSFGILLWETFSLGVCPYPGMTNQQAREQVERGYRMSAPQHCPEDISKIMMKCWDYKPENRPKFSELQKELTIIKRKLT
For experiment [6], the target named is Ephrin type-A receptor 5 (Homo sapiens) (UniProt P54756). As to the kind of experiment: Selectivity interaction (KinomeScan (Eurofins)) EUB0000250b EPHA5. As to conditions: at 1 µM.
Experiment [7] deals with NT-3 growth factor receptor (Homo sapiens, UniProt Q16288). As to the kind of experiment: Selectivity interaction (KinomeScan (DiscoverX)) EUB0000294b NTRK3. The following applies: at 1 µM.
Experiment [8] addresses Nischarin (Homo sapiens) (UniProt Q9Y2I1). As to the kind of experiment: Selectivity interaction (MDS Pharma Service panel (GPCR, ion channels, receptors, and other enzymes, radioligand binding assays)) EUB0000294b NISCH. The following applies: at 10 µM.
The target of experiment [9] is T2, Dual specificity mitogen-activated protein kinase kinase 5 (Homo sapiens) (UniProt Q13163).
T2 sequence (whole entry): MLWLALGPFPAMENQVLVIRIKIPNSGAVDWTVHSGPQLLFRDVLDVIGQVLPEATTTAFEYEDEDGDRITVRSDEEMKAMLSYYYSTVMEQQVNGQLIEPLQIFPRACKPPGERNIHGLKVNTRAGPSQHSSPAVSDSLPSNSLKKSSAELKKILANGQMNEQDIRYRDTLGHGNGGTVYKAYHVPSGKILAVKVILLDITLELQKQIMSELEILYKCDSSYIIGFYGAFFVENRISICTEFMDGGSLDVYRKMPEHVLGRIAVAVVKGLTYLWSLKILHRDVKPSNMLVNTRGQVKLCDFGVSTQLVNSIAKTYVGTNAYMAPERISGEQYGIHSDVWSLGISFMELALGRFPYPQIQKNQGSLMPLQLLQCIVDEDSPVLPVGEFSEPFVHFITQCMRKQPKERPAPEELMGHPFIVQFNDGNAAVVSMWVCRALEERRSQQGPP
As to the kind of experiment: Selectivity interaction (KinomeScan (DiscoverX)) EUB0000294b MAP2K5. The following applies: at 1 µM.

Experiment [10] concerns the target Sodium-dependent dopamine transporter (Homo sapiens, UniProt Q01959). As to the kind of experiment: Selectivity interaction (GPCR panel (PDSP screen)) EUB0000294b SLC6A3. The following applies: at 10 µM.
For experiment [11], the target named is Aurora kinase A (Homo sapiens) (UniProt O14965). As to the kind of experiment: Selectivity interaction (KinomeScan (DiscoverX)) EUB0000294b STK6. As to conditions: at 1 µM.
Sequence of Aurora kinase A (Homo sapiens) (O14965 whole entry): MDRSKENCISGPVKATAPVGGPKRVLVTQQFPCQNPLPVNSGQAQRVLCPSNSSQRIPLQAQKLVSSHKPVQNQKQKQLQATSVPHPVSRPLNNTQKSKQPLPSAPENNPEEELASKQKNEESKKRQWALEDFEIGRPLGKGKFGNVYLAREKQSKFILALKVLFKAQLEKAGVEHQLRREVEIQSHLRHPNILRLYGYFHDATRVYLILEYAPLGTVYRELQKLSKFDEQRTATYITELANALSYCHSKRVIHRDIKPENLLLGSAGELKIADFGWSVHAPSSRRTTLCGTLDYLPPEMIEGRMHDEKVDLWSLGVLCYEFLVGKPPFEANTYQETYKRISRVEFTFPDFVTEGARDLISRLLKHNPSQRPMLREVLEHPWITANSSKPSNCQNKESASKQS
In experiment [12] the target is T3, Serine/threonine-protein kinase LATS1 (Homo sapiens) (UniProt O95835).
T3 sequence (whole entry): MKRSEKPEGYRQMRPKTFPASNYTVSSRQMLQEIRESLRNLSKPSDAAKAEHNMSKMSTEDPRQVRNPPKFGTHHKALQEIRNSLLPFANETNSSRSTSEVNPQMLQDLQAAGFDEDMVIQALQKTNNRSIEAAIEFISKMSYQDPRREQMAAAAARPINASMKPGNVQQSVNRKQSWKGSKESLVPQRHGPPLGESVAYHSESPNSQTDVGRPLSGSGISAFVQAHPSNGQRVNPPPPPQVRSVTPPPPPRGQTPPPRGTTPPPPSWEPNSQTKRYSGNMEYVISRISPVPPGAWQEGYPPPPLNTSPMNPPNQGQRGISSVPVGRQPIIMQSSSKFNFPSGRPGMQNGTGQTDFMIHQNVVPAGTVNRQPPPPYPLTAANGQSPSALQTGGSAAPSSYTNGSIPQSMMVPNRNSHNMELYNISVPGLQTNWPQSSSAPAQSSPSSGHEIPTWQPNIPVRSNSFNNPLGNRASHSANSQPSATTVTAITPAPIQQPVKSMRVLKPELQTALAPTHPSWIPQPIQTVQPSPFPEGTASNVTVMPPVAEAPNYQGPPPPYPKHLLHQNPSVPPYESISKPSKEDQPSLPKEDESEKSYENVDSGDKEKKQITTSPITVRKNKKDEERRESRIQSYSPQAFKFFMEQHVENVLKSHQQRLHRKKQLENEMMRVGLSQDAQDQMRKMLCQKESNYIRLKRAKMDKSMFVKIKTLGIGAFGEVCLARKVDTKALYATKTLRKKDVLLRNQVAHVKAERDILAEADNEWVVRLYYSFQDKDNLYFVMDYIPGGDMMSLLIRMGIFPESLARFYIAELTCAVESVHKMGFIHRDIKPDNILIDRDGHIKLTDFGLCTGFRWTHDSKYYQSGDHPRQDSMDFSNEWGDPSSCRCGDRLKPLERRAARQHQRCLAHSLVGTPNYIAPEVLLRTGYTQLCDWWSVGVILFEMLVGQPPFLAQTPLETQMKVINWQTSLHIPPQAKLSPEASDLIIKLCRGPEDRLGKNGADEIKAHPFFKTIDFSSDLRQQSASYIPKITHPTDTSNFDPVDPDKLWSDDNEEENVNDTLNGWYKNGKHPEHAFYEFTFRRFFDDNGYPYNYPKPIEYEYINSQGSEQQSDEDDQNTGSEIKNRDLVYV
As to the kind of experiment: Selectivity interaction (KinomeScan (DiscoverX)) EUB0000294b LATS1. The following applies: at 1 µM.

The target in experiment [13] is Cyclin-dependent kinase-like 2 (Homo sapiens) (UniProt Q92772). As to the kind of experiment: Selectivity interaction (KinomeScan (DiscoverX)) EUB0000240b CDKL2. As to conditions: at 1 µM.
Sequence of Cyclin-dependent kinase-like 2 (Homo sapiens) (Q92772 whole entry): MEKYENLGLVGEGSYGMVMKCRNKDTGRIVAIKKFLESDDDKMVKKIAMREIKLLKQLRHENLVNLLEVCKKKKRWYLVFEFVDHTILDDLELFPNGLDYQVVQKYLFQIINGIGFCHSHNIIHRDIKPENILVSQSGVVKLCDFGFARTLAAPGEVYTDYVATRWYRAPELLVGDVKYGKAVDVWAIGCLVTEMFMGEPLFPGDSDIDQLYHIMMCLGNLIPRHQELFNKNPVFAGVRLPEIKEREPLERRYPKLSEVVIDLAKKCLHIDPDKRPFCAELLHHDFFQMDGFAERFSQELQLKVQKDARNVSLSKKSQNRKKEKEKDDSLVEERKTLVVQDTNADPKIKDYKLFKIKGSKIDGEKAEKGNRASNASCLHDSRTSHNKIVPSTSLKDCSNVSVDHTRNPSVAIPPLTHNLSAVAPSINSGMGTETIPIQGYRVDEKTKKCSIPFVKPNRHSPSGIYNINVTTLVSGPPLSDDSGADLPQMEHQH
The target in experiment [14] is Dual specificity tyrosine-phosphorylation-regulated kinase 1B (Homo sapiens, UniProt Q9Y463). As to the kind of experiment: Selectivity interaction (KinomeScan (DiscoverX)) EUB0000738a DYRK1B. The following applies: at 1 µM.
Experiment [15] deals with T4, Phosphatidylinositol 5-phosphate 4-kinase type-2 beta (Homo sapiens) (UniProt P78356).
T4 sequence (whole entry): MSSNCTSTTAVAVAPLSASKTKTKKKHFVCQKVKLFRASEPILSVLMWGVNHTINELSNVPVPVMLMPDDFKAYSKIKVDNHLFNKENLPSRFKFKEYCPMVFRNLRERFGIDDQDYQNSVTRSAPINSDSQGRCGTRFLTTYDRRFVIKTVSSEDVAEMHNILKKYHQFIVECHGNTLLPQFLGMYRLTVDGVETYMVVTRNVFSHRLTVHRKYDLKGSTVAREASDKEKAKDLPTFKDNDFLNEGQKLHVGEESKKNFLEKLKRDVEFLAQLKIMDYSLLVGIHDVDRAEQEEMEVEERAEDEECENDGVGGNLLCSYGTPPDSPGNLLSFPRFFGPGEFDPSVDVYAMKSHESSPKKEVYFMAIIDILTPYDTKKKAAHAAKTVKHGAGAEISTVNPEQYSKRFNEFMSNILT
As to the kind of experiment: Selectivity interaction (KinomeScan (DiscoverX)) EUB0000738a PIP4K2B. As to conditions: at 1 µM.

The target in experiment [16] is Kappa-type opioid receptor (Homo sapiens, UniProt P41145). As to the kind of experiment: Selectivity interaction (SafetyScreen44™ (Eurofins, ion channels, GPCRs, hydrolases, and other enzymes)) EUB0000282b OPRK1. The following applies: at 10 µM.
Sequence of Kappa-type opioid receptor (P41145 whole entry): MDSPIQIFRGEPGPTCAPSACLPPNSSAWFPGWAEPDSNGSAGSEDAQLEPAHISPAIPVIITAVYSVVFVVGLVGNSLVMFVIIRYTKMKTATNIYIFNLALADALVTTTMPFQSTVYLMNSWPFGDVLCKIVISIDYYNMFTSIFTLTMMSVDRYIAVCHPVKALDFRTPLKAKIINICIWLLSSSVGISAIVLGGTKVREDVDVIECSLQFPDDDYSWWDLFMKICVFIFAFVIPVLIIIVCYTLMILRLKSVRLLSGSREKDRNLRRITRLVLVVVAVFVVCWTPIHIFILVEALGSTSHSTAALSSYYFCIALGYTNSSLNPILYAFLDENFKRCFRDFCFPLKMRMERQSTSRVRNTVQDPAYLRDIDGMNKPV
Experiment [17] addresses T5, Mitogen-activated protein kinase kinase kinase 13 (Homo sapiens) (UniProt O43283).
T5 sequence (whole entry): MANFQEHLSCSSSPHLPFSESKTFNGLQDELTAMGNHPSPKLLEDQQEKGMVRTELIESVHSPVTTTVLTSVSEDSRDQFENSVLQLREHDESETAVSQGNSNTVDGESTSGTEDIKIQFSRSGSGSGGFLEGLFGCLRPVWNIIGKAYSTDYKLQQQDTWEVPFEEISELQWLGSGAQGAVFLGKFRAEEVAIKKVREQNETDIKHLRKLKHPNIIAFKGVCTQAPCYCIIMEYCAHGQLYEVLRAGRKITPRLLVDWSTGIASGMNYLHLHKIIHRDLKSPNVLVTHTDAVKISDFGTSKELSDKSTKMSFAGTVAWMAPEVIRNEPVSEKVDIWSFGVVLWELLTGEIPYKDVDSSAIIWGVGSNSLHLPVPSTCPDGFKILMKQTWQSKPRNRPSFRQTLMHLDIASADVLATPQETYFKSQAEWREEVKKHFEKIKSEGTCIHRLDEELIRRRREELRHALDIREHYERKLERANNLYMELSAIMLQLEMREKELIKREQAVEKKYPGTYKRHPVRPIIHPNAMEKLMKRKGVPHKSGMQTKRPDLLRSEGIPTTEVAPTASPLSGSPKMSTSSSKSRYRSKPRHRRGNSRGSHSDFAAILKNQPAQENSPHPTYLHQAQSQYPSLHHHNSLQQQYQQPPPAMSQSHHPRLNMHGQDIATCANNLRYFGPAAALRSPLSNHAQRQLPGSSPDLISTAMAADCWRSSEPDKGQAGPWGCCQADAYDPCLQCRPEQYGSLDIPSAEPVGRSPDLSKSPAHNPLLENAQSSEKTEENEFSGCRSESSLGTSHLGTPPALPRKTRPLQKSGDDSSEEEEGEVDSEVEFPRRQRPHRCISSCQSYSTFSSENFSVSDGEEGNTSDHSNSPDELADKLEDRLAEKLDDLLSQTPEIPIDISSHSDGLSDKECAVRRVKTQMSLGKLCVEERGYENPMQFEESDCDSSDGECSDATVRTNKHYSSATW
As to the kind of experiment: Selectivity interaction (KinomeScan (DiscoverX)) EUB0000347a MAP3K13. As to conditions: at 1 µM.

The target in experiment [18] is Cyclin-dependent kinase 5 (Homo sapiens) (UniProt Q00535). As to the kind of experiment: Selectivity interaction (KinomeScan (DiscoverX)) EUB0000347a CDK5. The following applies: at 1 µM.
Sequence of Cyclin-dependent kinase 5 (Homo sapiens) (Q00535 whole entry, looked up): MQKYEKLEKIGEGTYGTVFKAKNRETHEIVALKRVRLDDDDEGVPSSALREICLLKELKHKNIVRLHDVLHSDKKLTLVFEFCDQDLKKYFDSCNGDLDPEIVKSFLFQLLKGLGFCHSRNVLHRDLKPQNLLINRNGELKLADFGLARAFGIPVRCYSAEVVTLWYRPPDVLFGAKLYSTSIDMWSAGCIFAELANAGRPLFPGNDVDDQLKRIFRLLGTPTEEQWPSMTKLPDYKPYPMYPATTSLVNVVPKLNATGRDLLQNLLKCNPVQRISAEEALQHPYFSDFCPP
Experiment [19] deals with Dual specificity protein kinase CLK4 (Homo sapiens) (UniProt Q9HAZ1). As to the kind of experiment: Selectivity interaction (KinomeScan (DiscoverX)) EUB0000347a CLK4. As to conditions: at 1 µM.
Sequence of Dual specificity protein kinase CLK4 (Homo sapiens) (Q9HAZ1 whole entry, looked up): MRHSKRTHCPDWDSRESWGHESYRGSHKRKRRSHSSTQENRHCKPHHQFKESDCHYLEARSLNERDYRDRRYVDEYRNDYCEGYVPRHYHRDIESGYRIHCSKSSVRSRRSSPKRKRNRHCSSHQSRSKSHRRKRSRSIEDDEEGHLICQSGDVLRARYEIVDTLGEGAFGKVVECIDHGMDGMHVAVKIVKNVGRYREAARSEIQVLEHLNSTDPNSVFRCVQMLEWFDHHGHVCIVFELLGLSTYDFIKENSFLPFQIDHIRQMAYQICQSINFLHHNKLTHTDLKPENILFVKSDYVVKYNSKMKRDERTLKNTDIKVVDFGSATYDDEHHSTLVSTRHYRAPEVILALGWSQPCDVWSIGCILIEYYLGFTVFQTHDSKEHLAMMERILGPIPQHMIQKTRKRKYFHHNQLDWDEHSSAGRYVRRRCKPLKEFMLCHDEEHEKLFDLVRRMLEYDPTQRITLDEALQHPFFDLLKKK
In experiment [20] the target is 5'-AMP-activated protein kinase catalytic subunit alpha-1 (Homo sapiens, UniProt Q13131). As to the kind of experiment: Selectivity interaction (KinomeScan (DiscoverX)) EUB0000347a PRKAA1. As to conditions: at 1 µM.

Sequence of Nischarin (Homo sapiens) (Q9Y2I1 whole entry): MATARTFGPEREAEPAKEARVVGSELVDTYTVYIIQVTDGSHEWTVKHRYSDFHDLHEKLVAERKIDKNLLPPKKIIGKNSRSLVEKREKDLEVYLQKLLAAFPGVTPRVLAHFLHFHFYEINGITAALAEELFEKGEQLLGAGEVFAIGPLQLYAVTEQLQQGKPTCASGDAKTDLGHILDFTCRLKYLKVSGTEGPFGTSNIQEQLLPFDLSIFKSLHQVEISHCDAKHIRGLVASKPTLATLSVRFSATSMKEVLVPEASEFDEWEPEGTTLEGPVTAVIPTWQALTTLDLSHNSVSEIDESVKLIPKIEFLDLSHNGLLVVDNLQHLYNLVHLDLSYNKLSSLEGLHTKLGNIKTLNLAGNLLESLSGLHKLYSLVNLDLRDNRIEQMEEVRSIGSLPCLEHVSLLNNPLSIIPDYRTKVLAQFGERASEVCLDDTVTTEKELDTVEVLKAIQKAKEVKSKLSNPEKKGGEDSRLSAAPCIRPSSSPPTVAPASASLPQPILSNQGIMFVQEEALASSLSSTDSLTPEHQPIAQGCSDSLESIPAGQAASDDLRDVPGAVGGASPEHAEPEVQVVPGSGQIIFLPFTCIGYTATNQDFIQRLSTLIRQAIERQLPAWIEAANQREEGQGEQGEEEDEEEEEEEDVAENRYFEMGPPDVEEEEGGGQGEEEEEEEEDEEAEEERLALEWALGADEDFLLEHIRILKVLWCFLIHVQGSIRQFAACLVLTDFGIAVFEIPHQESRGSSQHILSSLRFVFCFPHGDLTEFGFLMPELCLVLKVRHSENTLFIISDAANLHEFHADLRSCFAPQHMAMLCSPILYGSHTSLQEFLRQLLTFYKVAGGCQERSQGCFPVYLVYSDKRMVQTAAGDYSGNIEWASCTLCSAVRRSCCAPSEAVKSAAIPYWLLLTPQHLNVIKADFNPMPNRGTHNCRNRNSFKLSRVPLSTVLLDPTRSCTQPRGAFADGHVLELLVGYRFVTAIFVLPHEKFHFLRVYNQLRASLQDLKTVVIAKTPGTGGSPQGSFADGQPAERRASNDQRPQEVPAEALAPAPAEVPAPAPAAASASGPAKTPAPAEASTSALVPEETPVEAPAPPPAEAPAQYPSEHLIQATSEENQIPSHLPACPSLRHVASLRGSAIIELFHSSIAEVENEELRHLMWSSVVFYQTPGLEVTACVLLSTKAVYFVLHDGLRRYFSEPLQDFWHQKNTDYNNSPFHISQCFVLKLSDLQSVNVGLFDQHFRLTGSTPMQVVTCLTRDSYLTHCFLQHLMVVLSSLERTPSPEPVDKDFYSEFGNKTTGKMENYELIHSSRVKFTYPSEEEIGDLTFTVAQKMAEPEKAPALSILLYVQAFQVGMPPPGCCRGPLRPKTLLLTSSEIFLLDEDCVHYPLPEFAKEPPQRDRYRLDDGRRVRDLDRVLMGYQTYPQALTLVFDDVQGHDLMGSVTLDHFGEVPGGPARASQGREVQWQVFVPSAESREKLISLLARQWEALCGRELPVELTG
Sequence of Sodium-dependent dopamine transporter (Q01959 whole entry): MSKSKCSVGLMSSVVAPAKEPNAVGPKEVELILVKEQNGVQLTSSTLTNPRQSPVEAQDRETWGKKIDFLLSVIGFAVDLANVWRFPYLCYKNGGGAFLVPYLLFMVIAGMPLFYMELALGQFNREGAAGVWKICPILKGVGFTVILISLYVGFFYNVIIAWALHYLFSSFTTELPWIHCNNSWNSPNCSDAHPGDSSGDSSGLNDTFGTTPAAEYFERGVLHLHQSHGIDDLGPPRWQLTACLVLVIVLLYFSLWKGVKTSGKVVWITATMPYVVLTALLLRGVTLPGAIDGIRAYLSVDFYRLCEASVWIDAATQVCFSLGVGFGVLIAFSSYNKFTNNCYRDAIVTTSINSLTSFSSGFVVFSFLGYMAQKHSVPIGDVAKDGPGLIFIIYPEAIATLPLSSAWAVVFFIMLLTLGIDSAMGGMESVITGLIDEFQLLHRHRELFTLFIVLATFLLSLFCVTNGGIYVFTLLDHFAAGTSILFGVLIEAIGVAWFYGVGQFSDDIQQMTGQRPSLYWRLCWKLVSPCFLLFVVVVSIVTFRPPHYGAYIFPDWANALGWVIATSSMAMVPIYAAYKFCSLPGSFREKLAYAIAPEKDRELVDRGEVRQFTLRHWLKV

`CN1CCN(c2cnc3c(C4CCN(C(=O)c5ccc(OC(F)(F)F)cc5N)CC4)ncnc3c2)CC1`: the % of control in [1] was found to be 18%; in experiment [2] it was 49%; in experiment [3] it was 38%; in [4], 42%; in experiment [5] it was 38%; in [6], 57%.
For `CCC(=O)N[C@H]1CC[C@@H](C(=O)N(C)c2ccc(-c3nc4ccccc4o3)cc2)C1`, the % of control in experiment [7] was determined as 32%; in [9], 16%; in experiment [11], 43%; in experiment [12] it was 48%. Besides, the % of inhibition in experiment [8] came out at 19%; in experiment [10] it was 77%.
Consider `O=C(Nc1cnc(Oc2ccc(F)cc2)nc1)N1CCc2ncccc2[C@@H]1c1ccc(F)cc1`, for which, in [13], the % of control stood at 33%.
For `CCC(=O)N[C@@H]1CC[C@H](C(=O)N(C)c2ccc(-c3nc4ccccc4o3)cc2)C1`, the % of control was determined as 36% in experiment [14] and 45% in [15].
In the case of `O=C(NCc1ccc(F)cc1)C1CCN(S(=O)(=O)c2cc(Cl)cc(Cl)c2)CC1`, the % of control in [16] is 19%.
Take `O=C(NCc1ncc(C(F)(F)F)cc1Cl)c1ccc2c(c1)C1(CCS(=O)(=O)CC1)[C@H](C1CC1)N2S(=O)(=O)c1ccc(F)cc1`: the % of control in [17] was 0%; in [18] it was 0%; in experiment [19], 0%; in experiment [20] it was 39%.
